Test results taken from the supplement of paper PMC11061612.

What was measured:
[1] = test system: OE33 (Esophageal Adenocarcinoma); test: combination Emax (second highest fraction inhibited in the dose matrix, 72 h); higher = more inhibition; extreme values may be limits of the assay
Method in brief: (§1)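 Cell lines grown in DMEM/F12 or RPMI with 10% FBS were plated in 1536-well plates and held 24 hours at 37°C, 5% CO2 before 72 hours of exposure to two-drug dose matrices, with DMSO typically at 0.2%. CellTiter-Glo 2.0 luminescence gave viability, which was converted to inhibition. Vehicle wells were set to 0 and blank wells to 1. Combination Emax is the second-highest inhibition in the matrix, and Bliss excess is the observed combination effect minus the expected EA + EB − EA·EB, where EA and EB are the single-agent effects.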

[2] = test system: NCI-H1355 (Lung Adenocarcinoma); test: as above
Method in brief: as §1

[3] = test system: SNU-387 (Hepatocellular Carcinoma); test: Bliss excess, mean over the matrix (fraction); higher = more synergy
Method in brief: as §1

[4] = test system: HCC2998 (Colorectal Carcinoma); test: as above
Method in brief: as §1

[5] = test system: KGN (Other Solid Carcinomas); test: as above
Method in brief: as §1

[6] = test system: KOPN-8 (B-Lymphoblastic Leukemia); test: as above
Method in brief: as §1

[7] = test system: NCI-H1993 (Lung Adenocarcinoma); test: as above
Method in brief: as §1

[8] = test system: EW-1 (Ewing's Sarcoma); test: as above
Method in brief: as §1

[9] = test system: OE33 (Esophageal Adenocarcinoma); test: as above
Method in brief: as §1

[10] = test system: HCC1500 (Breast Carcinoma); test: as above
Method in brief: as §1

[11] = test system: Hey (Ovarian Carcinoma); test: as above
Method in brief: as §1

[12] = test system: A4-Fuk (B-Lymphoblastic Leukemia); test: as above
Method in brief: as §1

[13] = test system: SKN (Other Solid Carcinomas); test: as above
Method in brief: as §1

[14] = test system: KMRC-1 (Kidney Carcinoma); test: as above
Method in brief: as §1

[15] = test system: SK-N-AS (Neuroblastoma); test: as above
Method in brief: as §1

[16] = test system: COLO-668 (Small Cell Lung Carcinoma); test: as above
Method in brief: as §1

[17] = test system: CADO-ES1 (Ewing's Sarcoma); test: as above
Method in brief: as §1

[18] = test system: NCI-H1355 (Lung Adenocarcinoma); test: as above
Method in brief: as §1

[19] = test system: Mo-T (Other Blood Carcinomas); test: as above
Method in brief: as §1

[20] = test system: NCI-H522 (Lung Adenocarcinoma); test: as above
Method in brief: as §1
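Throughout, for Bliss excess, mean over the matrix: after 72 h of two-drug dosing.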

| SMILES | combination Emax [1] | combination Emax [2] | Bliss excess [3] | Bliss excess [4] | Bliss excess [5] | Bliss excess [6] | Bliss excess [7] | Bliss excess [8] | Bliss excess [9] | Bliss excess [10] | Bliss excess [11] | Bliss excess [12] | Bliss excess [13] | Bliss excess [14] | Bliss excess [15] | Bliss excess [16] | Bliss excess [17] | Bliss excess [18] | Bliss excess [19] | Bliss excess [20] |
| --- | --- | --- | --- | --- | --- | --- | --- | --- | --- | --- | --- | --- | --- | --- | --- | --- | --- | --- | --- | --- |
| COc1cccc(OCCCN)c1-c1cc(Nc2cnc(C#N)cn2)n[nH]1 [Prexasertib] + C[C@@H]1COCCN1C2=NC(=NC(=C2)C3(CC3)[S@](=N)(=O)C)C4=C5C=CNC5=NC=C4 [AZD6738] (first compound max 1 µM, 7x7, partner max 10 µM) | 0.858 | 0.74 | 0.0035 | 0.0211 | -0.0399 | -0.0539 | -0.0176 | -0.0158 | -0.0334 | 0.0568 | 0.007 | -0.0602 | -0.02 | 0.0101 | -0.011 | 0.0269 | -0.0348 | 0.0276 | -0.0463 | 0.0392 |
| Cc1c2c(nn1C)CSCc1cc(n(C)n1)CSc1cc(c3ccccc3c1)OCCCc1c(C(=O)O)n(C)c3c-2c(Cl)ccc13 [AZD5991] + C1CN(CCC1(C(=O)N[C@@H](CCO)C2=CC=C(C=C2)Cl)N)C3=NC=NC4=C3C=CN4 [Capivasertib] (first compound max 1 µM, 7x7, partner max 3 µM) | 0.112 | 0.227 | 0.0124 | -0.0434 | 0.0051 | -0.0468 | 0.0523 | 0.0232 | -0.0328 | 0.0467 | -0.0349 | -0.0011 | -0.024 | -0.0076 | 0.0017 | 0.0516 | -0.029 | -0.0016 | -0.0046 | 0.0415 |
| CN(C)CCCOc1ccc(-c2ccc3ncc4c(c3c2)n(C2CCOCC2)c(=O)n4C)cn1 [AZD0156] + C[C@@H]1COCCN1C2=NC(=NC(=C2)C3(CC3)[S@](=N)(=O)C)C4=C5C=CNC5=NC=C4 [AZD6738] (first compound max 1 µM, 7x7, partner max 10 µM) | 0.788 | 0.69 | 0.0187 | 0.0637 | -0.0172 | -0.0166 | -0.0329 | 0.042 | -0.0451 | -0.0112 | -0.019 | -0.0079 | -0.0069 | -0.0496 | -0.0108 | -0.017 | 0.0405 | -0.0234 | -0.0382 | -0.0258 |
| Cn1cnc2c(F)c(Nc3ccc(Br)cc3Cl)c(C(=O)NOCCO)cc21 [Selumetinib] + CC(C)n1c(=O)n(C)c2cnc3cc(F)c(-c4ccc(OCCCN5CCCCC5)nc4)cc3c21 [AZD1390] (first compound max 10 µM, 7x7, partner max 0.3 µM) | 0.265 | 0.172 | -0.0512 | 0.0076 | 0.0282 | 0.0131 | -0.0741 | -0.0419 | -0.0277 | -0.0156 | -0.0378 | 0.0335 | -0.0616 | -0.0685 | -0.019 | 0.0314 | -0.0446 | 0.0043 | -0.0339 | -0.0483 |
| Cc1c2c(nn1C)CSCc1cc(n(C)n1)CSc1cc(c3ccccc3c1)OCCCc1c(C(=O)O)n(C)c3c-2c(Cl)ccc13 [AZD5991] + Cc1cc2ncnn2cc1Nc1ncc2c(n1)n(C1CCOCC1)c(=O)n2C [AZD7648] (first compound max 1 µM, 7x7, partner max 10 µM) | 0.237 | 0.393 | -0.0318 | -0.0317 | -0.0404 | -0.0816 | -0.0225 | -0.0108 | -0.0304 | -0.0471 | -0.015 | 0.0085 | -0.0386 | -0.0161 | -0.0554 | 0.0003 | -0.0296 | -0.0055 | -0.08 | -0.0586 |
| COc1cccc(OCCCN)c1-c1cc(Nc2cnc(C#N)cn2)n[nH]1 [Prexasertib] + Cc1cc2ncnn2cc1Nc1ncc2c(n1)n(C1CCOCC1)c(=O)n2C [AZD7648] (first compound max 1 µM, 7x7, partner max 10 µM) | 0.823 | 0.714 | -0.0434 | -0.0053 | -0.0033 | 0.0298 | -0.0683 | -0.0217 | 0.0061 | 0.0354 | -0.0301 | -0.0989 | -0.0238 | -0.0152 | -0.0015 | -0.0459 | -0.0261 | -0.0405 | 0.0159 | -0.0005 |
| Cc1c2c(nn1C)CSCc1cc(n(C)n1)CSc1cc(c3ccccc3c1)OCCCc1c(C(=O)O)n(C)c3c-2c(Cl)ccc13 [AZD5991] + CN(C)CCCOc1ccc(-c2ccc3ncc4c(c3c2)n(C2CCOCC2)c(=O)n4C)cn1 [AZD0156] (first compound max 1 µM, 7x7, partner max 1 µM) | 0.156 | 0.263 | -0.0536 | 0.0003 | -0.0314 | -0.118 | -0.0369 | 0.0051 | -0.0227 | 0.0453 | -0.0039 | -0.0032 | -0.0055 | -0.0412 | -0.0303 | 0.0135 | -0.0098 | -0.0298 | -0.0236 | -0.0354 |
| COc1cccc2c1C(=O)c1c(O)c3c(c(O)c1C2=O)C[C@@](O)(C(=O)CO)C[C@@H]3O[C@H]1C[C@H](N)[C@H](O)[C@H](C)O1 [Doxorubicin] + Cc1cc2ncnn2cc1Nc1ncc2c(n1)n(C1CCOCC1)c(=O)n2C [AZD7648] (first compound max 1 µM, 7x7, partner max 10 µM) | 0.526 | 0.624 | 0.005 | 0.0344 | 0.0694 | 0.119 | -0.0182 | 0.126 | 0.0114 | 0.0605 | 0.13 | -0.018 | 0.0231 | 0.0835 | 0.0664 | 0.0633 | 0.111 | 0.0337 | 0.0096 | 0.0072 |
